Experiments:
RUP3 [1] = molecular target: T1, RUP3 (Mus musculus, UniProt Q7TQP3); experiment: Oral glucose tolerance test (oGTT) in mice; type: in vivo; details: for Mean % Inhibition of Glucose Excursion: male C57bl/6J mice, dextrose 3 g/Kg oral; for Blood glucose after glucose challenge: male C57bl/6J mice, 1, 3 or 10 mg/Kg p.o.
T1 construct: randomly grouped (n=5) to receive a RUP3 agonist (either Compound B3 or B124); from tissue; host or cells: whole animal (male C57bl/6J mice), in vivo
T1 sequence (Q7TQP3 1-335): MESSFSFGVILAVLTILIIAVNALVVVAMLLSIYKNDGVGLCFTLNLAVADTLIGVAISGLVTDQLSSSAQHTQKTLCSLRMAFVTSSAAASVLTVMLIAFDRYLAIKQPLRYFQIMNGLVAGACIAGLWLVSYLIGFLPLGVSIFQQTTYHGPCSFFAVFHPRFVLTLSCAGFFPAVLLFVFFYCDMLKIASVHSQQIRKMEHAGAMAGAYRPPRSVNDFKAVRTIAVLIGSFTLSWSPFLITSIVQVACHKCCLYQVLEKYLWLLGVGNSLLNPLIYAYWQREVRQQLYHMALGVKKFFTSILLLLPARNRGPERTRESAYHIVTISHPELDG
Method: Male C57bl/6J mice at approximately 8 weeks of age were fasted for 18 hours and randomly grouped (n=5) to receive a RUP3 agonist (either Compound B3 or B124) at 1, 3 or 10 mg/Kg. Compounds were delivered orally via a gavage needle (p.o., volume 10 mL/Kg). At time 0, levels of blood glucose were assessed using a glucometer (Elite XL, Bayer), and mice were administered either vehicle (20% hydroxypropyl-beta-cyclodextrin) or test compound. Thirty minutes after administration of test compound, levels of blood glucose were again assessed, and mice were administered dextrose orally at a dose of 3 g/Kg. Blood glucose measurements were then taken 20 min, 40 min, 60 min and 120 min after this time.

RUP3 [2] = molecular target: T2, RUP3 (Homo sapiens, UniProt Q8TDV5); experiment: Melanophore dispersion assay, RUP3 dose responses; type: cell-based; details: melanophores transfected with RUP3 expression vector
T2 construct: expressed in transfected cells; host or cells: melanophores (cultured per Potenza and Lerner 1992), electroporated with the RUP3 expression vector (pCMV)
T2 sequence (Q8TDV5 1-335): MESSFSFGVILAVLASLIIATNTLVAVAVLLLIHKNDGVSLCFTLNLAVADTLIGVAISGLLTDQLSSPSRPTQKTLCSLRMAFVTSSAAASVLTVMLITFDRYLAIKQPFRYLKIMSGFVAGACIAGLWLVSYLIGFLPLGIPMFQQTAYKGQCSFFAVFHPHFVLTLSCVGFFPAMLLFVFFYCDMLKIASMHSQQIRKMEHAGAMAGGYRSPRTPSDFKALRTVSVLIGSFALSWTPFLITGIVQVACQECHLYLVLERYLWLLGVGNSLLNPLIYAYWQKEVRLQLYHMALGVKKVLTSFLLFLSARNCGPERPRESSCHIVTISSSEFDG
Method: Melanophores are maintained in culture as reported by Potenza, M. N. and Lerner, M. R., in Pigment Cell Research, Vol. 5, 372-378, 1992 and transfected with the RUP3 expression vector (pCMV) using electroporation. Following electroporation, the transfected cells are plated into 96 well plates for the assay. The cells are then allowed to grow for 48 hours in order to both recover from the electroporation procedure and attain maximal receptor expression levels.
On the assay day, the growth medium on the cells is replaced with serum-free buffer containing 10 nM melatonin. The melatonin acts via an endogenous Gi-coupled GPCR in the melanophores to lower intracellular cAMP levels. In response to lowered cAMP levels, the melanophores translocate their pigment to the center of the cell. The net effect of this is a significant decrease in the absorbance reading of the cell monolayer in the well, measured at […].
After a 1-hour incubation in melatonin, the cells become completely pigment-aggregated. At this point a baseline absorbance reading is collected. Serial dilutions of test compounds are then added to the plate and compounds that stimulate RUP3 produce increases in intracellular cAMP levels. In response to these increased cAMP levels, the melanophores translocate their pigment back into the cell periphery. After one hour, stimulated cells are fully pigment-dispersed. The cell monolayer in the dispersed state absorbs much more light in the 600-650 nm range. The measured increase in absorbance compared to the baseline reading allows one to quantitate the degree of receptor stimulation and plot a dose-response curve.
The compounds in the above examples were screened using the melanophore dispersion assay, as described above.

| Structure (SMILES) | EC50 (RUP3 [2]) [nM] | Mean % Inhibition of Glucose Excursion (RUP3 [1]; 1 mg/Kg p.o.) [%] | Mean % Inhibition of Glucose Excursion (RUP3 [1]; 3 mg/Kg p.o.) [%] | Mean % Inhibition of Glucose Excursion (RUP3 [1]; 10 mg/Kg p.o.) [%] | Blood glucose after glucose challenge (RUP3 [1]) |
| --- | --- | --- | --- | --- | --- |
| CC(C)OC(=O)N1CCC(Oc2cc(Nc3ccc(S(C)(=O)=O)cc3F)ncn2)CC1 [Compound B3, 4-[6-(2-Fluoro-4-methanesulfonyl-phenylamino)-pyrimidin-4-yloxy]-piperidine-1-carboxylic acid isopropyl ester] |  | 14.83 | 22.03 | 39.31 | lowered blood glucose in a dose-dependent manner |
| CCCNc1ccc(Nc2cc(OC3CCN(C(=O)OC(C)C)CC3)ncn2)c(C)c1 [Compound B124, 4-[6-(2-Methyl-4-propylamino-phenylamino)-pyrimidin-4-yloxy]-piperidine-1-carboxylic acid isopropyl ester] |  | 0 | 5.49 | 21.94 | lowered blood glucose in a dose-dependent manner |
| CC(C)OC(=O)N1CCC(Oc2cc(Oc3ccc(Br)cc3F)ncn2)CC1 [Compound B143, 4-[6-(4-Bromo-2-fluoro-phenoxy)-pyrimidin-4-yloxy]-piperidine-1-carboxylic acidisopropyl ester] | 48 |  |  |  |  |

Further lines, with some results ahead:

| EC50 (RUP3 [2]) [nM] | Structure (SMILES) | Mean % Inhibition of Glucose Excursion (RUP3 [1]; 1 mg/Kg p.o.) [%] | Mean % Inhibition of Glucose Excursion (RUP3 [1]; 3 mg/Kg p.o.) [%] | Mean % Inhibition of Glucose Excursion (RUP3 [1]; 10 mg/Kg p.o.) [%] | Blood glucose after glucose challenge (RUP3 [1]) |
| --- | --- | --- | --- | --- | --- |
| 62 | Cc1ccc(Nc2cc(OC3CCN(C(=O)OC(C)(C)C)CC3)ncn2)cc1F [Compound B16, 4-[6-(3-Fluoro-4-methyl-phenylamino)-pyrimidin-4-yloxy]-piperidine-1-carboxylic acid tert-butyl ester] |  |  |  |  |
| 128 | COc1ccc(Nc2cc(OC3CCN(C(=O)OC(C)(C)C)CC3)ncn2)cc1F [Compound B21, 4-[6-(3-Fluoro-4-methoxy-phenylamino)-pyrimidin-4-yloxy]-piperidine-1-carboxylic acid tert-butyl ester] |  |  |  |  |

From patent US20090036434A1, “Substituted aryl and heteroaryl derivatives as modulators of metabolism and the prophylaxis and treatment of disorders related thereto” (Arena Pharmaceuticals, Inc., priority 2004, published 2009)
